# Tests used:
# barnyardgrass = test: Test B pre-/postemergence herbicide test; assay type: in vivo, Echinochloa crus-galli
# In short: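 Test chemicals in a non-phytotoxic solvent mixture with surfactant were applied preemergence to seeded species and postemergence to plants 2-18 cm tall (1- to 4-leaf stage); rice and barnyardgrass were also tested in a flooded paddy at the 2-leaf stage. Visual rating versus controls after 13-15 days in greenhouse, scale 0 (no effect) to 100 (complete control).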
# ducksalad = test: Test B flooded paddy test; assay type: in vivo, Heteranthera limosa; conditions: 1000 g ai/ha, scale 0 to 100 (0 no effect, 100 complete control)
# In short: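 Paddy species grown to the 2-leaf stage under flooding; blackgrass sprayed postemergence at 2–18 cm (1- to 4-leaf stage). Plants kept in a greenhouse for 13 to 15 days, then visually rated against controls on 0 (no effect) to 100 (complete control).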
# Surinam grass = test: Test C pre-/postemergence herbicide test; assay type: in vivo, Urochloa decumbens
# In short: (§1)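 Visual injury scores run from 0 (no effect) to 100 (complete control), assessed relative to untreated controls 12 to 14 days after treatment in the greenhouse. Chemicals were formulated in a non-phytotoxic solvent mixture with surfactant and applied to soil after planting or to emerged plants at the 1- to 4-leaf stage.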
# large crabgrass = test: Test C pre-/postemergence herbicide test; assay type: in vivo, Digitaria sanguinalis
# In short: as §1
# lambsquarters = test: Test C pre-/postemergence herbicide test; assay type: in vivo, Chenopodium album
# In short: as §1
# yellow nutsedge = test: Test C pre-/postemergence herbicide test; assay type: in vivo, Cyperus esculentus
# In short: as §1
# common ragweed = test: Test C pre-/postemergence herbicide test; assay type: in vivo, Ambrosia elatior; set-up: key to Plant response rating, Ragweed: 0 = no effect, 100 = complete control
# In short: as §1
# [1] = Postemergence, 500 g ai/ha, visual rating after 13 to 15 days, scale 0 (no effect) to 100 (complete control)
# [2] = Preemergence, 500 g ai/ha, scale 0 to 100
# [3] = postemergence, 125 g ai/ha, visual rating, scale 0 (no effect) to 100 (complete control)
# [4] = preemergence, 125 g ai/ha, 0 to 100 scale, 0 is no effect, 100 is complete control
# [5] = 125 g ai/ha, scale 0 (no effect) to 100 (complete control), visual, 12 to 14 days, preemergence
# [6] = 250 g ai/ha, scale 0 to 100 (0 no effect, 100 complete control), visual, 12 to 14 days, preemergence
# [7] = Preemergence, 500 g ai/ha, scale 0 to 100, 0 no effect, 100 complete control
# [8] = 125 g ai/ha, visual rating, scale 0 (no effect) to 100 (complete control), postemergence
# [9] = 500 g ai/ha, visual rating, 0 = no effect, 100 = complete control, preemergence
# [10] = postemergence, 500 g ai/ha, scale 0 to 100, 0 is no effect, 100 is complete control
# [11] = 62 g ai/ha, preemergence, scale 0 to 100
# [12] = 250 g ai/ha, scale 0-100, preemergence
# [13] = 500 g ai/ha, scale 0 to 100 (0 no effect, 100 complete control), visual, 12 to 14 days, preemergence
# [14] = 125 g ai/ha, 0 is no effect, 100 is complete control, preemergence
# [15] = Postemergence, 250 g ai/ha, scale 0 to 100, 0 no effect, 100 complete control
# [16] = postemergence, 125 g ai/ha, scale 0 to 100
# [17] = postemergence, 62 g ai/ha, scale 0 to 100
smiles,measurement,setting,value
CCCn1nc(C(C)(C)C)cc1C(=O)Nc1cccc(C(=O)NCC)c1 [Compound 57],"Plant response rating, Barnyardgrass",barnyardgrass; [1],20
same,Barnyardgrass plant response rating,barnyardgrass; [2],70
same,Barnyardgrass plant response rating,barnyardgrass; [3],10
same,"Plant response rating, Barnyardgrass",barnyardgrass; [4],50
same,Ducksalad plant response rating,"ducksalad; visual rating, 13 to 15 days",50
same,"Plant response rating (0 = no effect, 100 = complete control), Surinam Grass","Surinam grass; 62 g ai/ha, preemergence",0
same,"Plant response rating, Surinam Grass",Surinam grass; [5],15
same,"Plant response rating, Surinam Grass",Surinam grass; [6],35
same,Surinam Grass plant response rating,Surinam grass; [7],75
same,"Plant response rating (0 = no effect, 100 = complete control), Crabgrass, Large","large crabgrass; 62 g ai/ha, preemergence",95
same,"Plant response rating, Crabgrass, Large",large crabgrass; [5],100
same,"Plant response rating, Crabgrass, Large",large crabgrass; [6],100
same,"Crabgrass, Large plant response rating",large crabgrass; [7],100
same,"Plant response rating (0 = no effect, 100 = complete control), Lambsquarters","lambsquarters; 62 g ai/ha, preemergence",100
same,"Plant response rating, Lambsquarters",lambsquarters; [5],100
same,"Plant response rating, Lambsquarters",lambsquarters; [6],100
same,Lambsquarters plant response rating,lambsquarters; [7],100
same,"Plant response rating (0 = no effect, 100 = complete control), Nutsedge, Yellow","yellow nutsedge; 62 g ai/ha, preemergence",0
same,"Plant response rating, Nutsedge, Yellow",yellow nutsedge; [5],0
same,"Plant response rating, Nutsedge, Yellow",yellow nutsedge; [6],0
same,"Nutsedge, Yellow plant response rating",yellow nutsedge; [7],20
same,"Plant response rating (0 = no effect, 100 = complete control), Ragweed","common ragweed; 62 g ai/ha, preemergence",65
same,"Plant response rating, Ragweed",common ragweed; [5],100
same,"Plant response rating, Ragweed",common ragweed; [6],100
same,Ragweed plant response rating,common ragweed; [7],100
CCn1nc(C2(C)CC2)cc1C(=O)Nc1cccc(C(=O)N2CC=CC2)c1 [Compound 304],Barnyardgrass plant response rating (0 to 100 scale),"barnyardgrass; 125 g ai/ha, 0 = no effect, 100 = complete control, preemergence",10
same,Barnyardgrass plant response rating,barnyardgrass; [8],20
same,"Plant response rating, Barnyardgrass",barnyardgrass; [9],70
same,Barnyardgrass plant response rating,barnyardgrass; [10],20
same,Ducksalad plant response rating,ducksalad,90
same,"Plant response rating, Surinam Grass",Surinam grass; [11],0
same,"Plant response rating, Surinam Grass",Surinam grass; [12],40
same,"Plant response rating, Surinam Grass",Surinam grass; [13],85
same,"Plant response rating, Crabgrass, Large",large crabgrass; [11],35
same,"Plant response rating, Crabgrass, Large",large crabgrass; [5],100
same,"Plant response rating, Crabgrass, Large",large crabgrass; [12],100
same,"Plant response rating, Crabgrass, Large",large crabgrass; [13],100
same,"Plant response rating, Lambsquarters",lambsquarters; [11],0
same,"Plant response rating, Lambsquarters",lambsquarters; [5],100
same,"Plant response rating, Lambsquarters",lambsquarters; [12],100
same,"Plant response rating, Lambsquarters",lambsquarters; [13],100
same,"Plant response rating, Nutsedge, Yellow",yellow nutsedge; [11],0
same,"Plant response rating, Nutsedge, Yellow",yellow nutsedge; [5],0
same,"Plant response rating, Nutsedge, Yellow",yellow nutsedge; [12],0
same,"Plant response rating, Nutsedge, Yellow",yellow nutsedge; [13],5
same,"Plant response rating, Ragweed",common ragweed; [11],0
same,"Plant response rating, Ragweed",common ragweed; [12],70
same,"Plant response rating, Ragweed",common ragweed; [13],70
CCN(CC)C(=O)c1cccc(NC(=O)c2nn(C(C)(C)C)nc2C)c1 [Compound 418],"Plant response rating (0 to 100 scale), Barnyardgrass",barnyardgrass; [14],70
same,Barnyardgrass plant response rating,"barnyardgrass; Postemergence, 125 g ai/ha, scale 0 (no effect) to 100 (complete control)",20
same,Barnyardgrass plant response rating,"barnyardgrass; Postemergence, 500 g ai/ha, scale 0 (no effect) to 100 (complete control)",20
same,Ducksalad plant response rating,ducksalad,70
same,"Plant response rating, Surinam Grass",Surinam grass; [11],50
same,"Plant response rating (0 = no effect, 100 = complete control), Surinam Grass","Surinam grass; 125 g ai/ha, preemergence",85
same,"Plant response rating, Surinam Grass",Surinam grass; [13],100
same,"Plant response rating, Crabgrass, Large",large crabgrass; [11],95
same,"Plant response rating (0 = no effect, 100 = complete control), Crabgrass, Large","large crabgrass; 125 g ai/ha, preemergence",100
same,"Plant response rating, Crabgrass, Large",large crabgrass; [12],100
same,"Plant response rating, Crabgrass, Large",large crabgrass; [13],100
same,"Plant response rating, Lambsquarters",lambsquarters; [11],95
same,"Plant response rating (0 = no effect, 100 = complete control), Lambsquarters","lambsquarters; 125 g ai/ha, preemergence",100
same,"Plant response rating, Lambsquarters",lambsquarters; [12],100
same,"Plant response rating, Lambsquarters",lambsquarters; [13],100
same,"Plant response rating, Nutsedge, Yellow",yellow nutsedge; [11],0
same,"Plant response rating (0 = no effect, 100 = complete control), Nutsedge, Yellow","yellow nutsedge; 125 g ai/ha, preemergence",0
same,"Plant response rating, Nutsedge, Yellow",yellow nutsedge; [13],0
same,"Plant response rating, Ragweed",common ragweed; [11],50
same,"Plant response rating (0 = no effect, 100 = complete control), Ragweed","common ragweed; 125 g ai/ha, preemergence",70
same,"Plant response rating, Ragweed",common ragweed; [13],100
CCn1nc(C(C)(C)C)cc1C(=O)Nc1cccc(C(=O)OC)c1 [Compound 81],"Plant response rating, Barnyardgrass",barnyardgrass; [1],90
same,Barnyardgrass plant response rating,barnyardgrass; [2],60
same,Barnyardgrass plant response rating,barnyardgrass; [3],70
same,"Plant response rating, Barnyardgrass",barnyardgrass; [4],10
same,Ducksalad plant response rating,"ducksalad; visual rating, 13 to 15 days",80
same,"Plant response rating, Surinam Grass",Surinam grass; [15],80
same,"Plant response rating, Surinam Grass",Surinam grass; [16],50
same,"Plant response rating, Surinam Grass",Surinam grass; [17],50
same,"Plant response rating, Crabgrass, Large",large crabgrass; [15],30
same,"Plant response rating, Crabgrass, Large",large crabgrass; [16],10
same,"Plant response rating, Crabgrass, Large",large crabgrass; [17],5
same,"Plant response rating, Lambsquarters",lambsquarters; [15],5
same,"Plant response rating, Lambsquarters",lambsquarters; [16],5
same,"Plant response rating, Lambsquarters",lambsquarters; [17],5
same,"Plant response rating, Nutsedge, Yellow",yellow nutsedge; [15],0
same,"Plant response rating, Nutsedge, Yellow",yellow nutsedge; [16],0
same,"Plant response rating, Nutsedge, Yellow",yellow nutsedge; [17],0
same,"Plant response rating, Ragweed",common ragweed; [15],60
same,"Plant response rating, Ragweed",common ragweed; [16],60
same,"Plant response rating, Ragweed",common ragweed; [17],40
CCC1=NN(C(C)(C)C)CC1C(=O)Nc1cc(C(=O)N(C)CC)ccc1F (racemic) [Compound 342],"Plant response rating (0 to 100 scale), Barnyardgrass",barnyardgrass; [14],70
same,Barnyardgrass plant response rating,barnyardgrass; [8],10
same,"Plant response rating, Barnyardgrass",barnyardgrass; [9],100
same,Barnyardgrass plant response rating,barnyardgrass; [10],20
same,Ducksalad plant response rating,ducksalad,80
same,"Plant response rating, Surinam Grass",Surinam grass; [11],40
same,"Plant response rating (0 = no effect, 100 = complete control), Surinam Grass","Surinam grass; 125 g ai/ha, preemergence",90
same,"Plant response rating, Surinam Grass",Surinam grass; [12],100
same,"Plant response rating, Surinam Grass",Surinam grass; [13],100
same,"Plant response rating, Crabgrass, Large",large crabgrass; [11],60
same,"Plant response rating (0 = no effect, 100 = complete control), Crabgrass, Large","large crabgrass; 125 g ai/ha, preemergence",60
same,"Plant response rating, Crabgrass, Large",large crabgrass; [12],70
same,"Plant response rating, Crabgrass, Large",large crabgrass; [13],85
same,"Plant response rating, Lambsquarters",lambsquarters; [11],70
same,"Plant response rating (0 = no effect, 100 = complete control), Lambsquarters","lambsquarters; 125 g ai/ha, preemergence",90
same,"Plant response rating, Lambsquarters",lambsquarters; [12],100
same,"Plant response rating, Lambsquarters",lambsquarters; [13],100
same,"Plant response rating, Nutsedge, Yellow",yellow nutsedge; [11],0
same,"Plant response rating (0 = no effect, 100 = complete control), Nutsedge, Yellow","yellow nutsedge; 125 g ai/ha, preemergence",0
same,"Plant response rating, Nutsedge, Yellow",yellow nutsedge; [12],40
same,"Plant response rating, Nutsedge, Yellow",yellow nutsedge; [13],60
same,"Plant response rating, Ragweed",common ragweed; [11],55
same,"Plant response rating (0 = no effect, 100 = complete control), Ragweed","common ragweed; 125 g ai/ha, preemergence",95
same,"Plant response rating, Ragweed",common ragweed; [12],100
same,"Plant response rating, Ragweed",common ragweed; [13],100

# Reference: patent US20060069132A1, “Azolecarboxamide herbicides” (priority 2004, published 2006)
